Values after ≈ are worked out from the molar mass of the structure shown. Some results are limits rather than exact numbers.

The conditions of the series: buffer; pH 7.4; 200.0 µM.
`CCC(C)(C)NC(=O)C1CCCN1C(=O)NC1CCCCC1` (stereo not given) gave a kinetic solubility of over 46.4 µg/mL.
To `O=S(=O)(NCc1ccc2c(c1)OCO2)c1ccccc1F` belongs 37.1 µg/mL (≈ 120 µM); to `O=C(/C=C/Nc1ccc(F)c(Cl)c1)c1ccccc1`, 0.7 µg/mL (≈ 2.54 µM).
In the case of `COc1ccc(CNCc2ccncc2)c(OC)c1.Cl`, the solubility (kinetic) is over 44.2 µg/mL.
To `O=C(NCCCO)c1cc2ccccc2[nH]1` belongs over 32.7 µg/mL.
Take `O=C(COc1ccccc1)Nc1c(Cl)ccc2nsnc12`: the kinetic solubility was 4.7 µg/mL (≈ 14.7 µM).
The result for `COC(=O)Nc1nn(-c2ccc(OC)cc2)c(=O)c(C#N)c1C` reads over 47.1 µg/mL.
`CCn1c(=NC(=O)COc2ccccc2)sc2cccc(F)c21` registered a kinetic solubility of under 0.4 µg/mL.
In turn, `O=C(Nc1cc([N+](=O)[O-])ccc1F)c1ccc2ccccc2c1` returned a kinetic solubility of under 0.3 µg/mL.
As to `O=C(CCCN1C(=O)c2ccccc2C1=O)NCCCn1ccnc1`, the solubility (kinetic) is 49.5 µg/mL (≈ 145 µM).
`CS(=O)(=O)N1CCC(C(=O)NCc2ccc(F)cc2)CC1` gave a kinetic solubility of over 47.2 µg/mL.
`COc1ccccc1OCC(O)COC(N)=O` (stereo not given) yielded a solubility (kinetic) of 29.9 µg/mL (≈ 124 µM).
`COc1cccc(C2Nc3ccccc3C(=O)N2Cc2ccccc2)c1` (stereo not given) gave a solubility (kinetic) of 17.3 µg/mL (≈ 50.2 µM).
Compound `CC(CCN1CCN(CCO)CC1)c1ccccc1` (stereo not given) came in with a solubility (kinetic) of 23.1 µg/mL (≈ 88 µM).
As to `COC(=O)C1=C(C)N(c2ccc(OC)cc2)C(C)=C(C(=O)OC)C1c1ccccc1`, the kinetic solubility is 1 µg/mL (≈ 2.45 µM).
`Cc1ccc(C)c(NC(=O)CCC(=O)NN=C2CCCC2)c1` came in with a kinetic solubility of over 45.2 µg/mL.
With `O=C(CCCC(=O)c1ccccc1)Nc1ccc(F)cc1`, the solubility (kinetic) came to 4.9 µg/mL (≈ 17.2 µM).
To `CNC(=O)c1ccccc1Sc1cccc2cccc(C(=O)O)c12` belongs over 50.6 µg/mL.
To `O=C(CCCCl)N1CCc2[nH]c3ccccc3c2C1` belongs over 41.5 µg/mL; to `CCN(CC(=O)Nc1c(F)cccc1F)C(=O)C1CC1C` (stereo not given), over 44.4 µg/mL; to `C=Cn1c(C(=O)O)ccc1-c1ccc(OC)cc1`, over 36.5 µg/mL.
In turn, `CC(C)N1CC(C(=O)Nc2ccc(Cl)c(Cl)c2)CC1=O` (stereo not given) gave a kinetic solubility of over 47.3 µg/mL.
`CCc1sc(C(=O)NCc2ccccc2)cc1C` came in with a solubility (kinetic) of 28.7 µg/mL (≈ 111 µM).
Turning to `O=C(NCCCCc1ccccc1)c1cc([N+](=O)[O-])cc([N+](=O)[O-])c1`, the kinetic solubility came to 9.9 µg/mL (≈ 28.8 µM).
In turn, `Cc1ccc2[nH]c3c(c2c1)CNCC3.Cl` gave a kinetic solubility of 31.7 µg/mL.
To `COC(=O)c1cc(OCC(=O)Nc2ccc3c(c2)CCC3)cc(C(=O)OC)c1` belongs 3 µg/mL (≈ 7.82 µM); to `Cc1ccc2c(c1)sc(=NC(=O)C1CC1)n2C`, 15.5 µg/mL (≈ 62.9 µM); to `O=C(Nc1ccccc1)C1CCCN1C(=O)NCc1ccccc1` (stereo not given), 22 µg/mL (≈ 68 µM).
To `O=C(/C=C/c1ccccc1)NCc1ccc2c(c1)OCO2` belongs 2.5 µg/mL (≈ 8.89 µM); to `Oc1ccc(-c2cnc(-c3ccc(O)cc3)nc2)cc1`, 1.7 µg/mL (≈ 6.43 µM); to `C1=C(c2ccccc2)CCNC1.Cl`, 24.9 µg/mL.
On to `Cc1cc(NS(=O)(=O)c2ccc(NC(=O)c3ccc([N+](=O)[O-])s3)cc2)nc(C)n1`, for which the kinetic solubility is over 65 µg/mL.
The result for `Cc1nonc1NC(=O)CSc1ccccn1` reads over 37.5 µg/mL; that for `NC(=O)c1c(NC(=O)c2ccc(F)cc2Cl)sc2c1CCC2`, 1 µg/mL (≈ 2.95 µM).
As for `CCOc1ccc(CCNC(=O)Nc2ccccc2C)cc1OCC`, the solubility (kinetic) amounted to 3.2 µg/mL (≈ 9.34 µM).
To `Cc1cc(NC(=O)CS(=O)(=O)c2c[nH]c3ccccc23)no1` belongs over 47.9 µg/mL; to `NC(=O)COC(=O)c1ccc2c(c1)C(=O)N(Cc1ccco1)C2=O`, over 49.2 µg/mL; to `COc1ccc(CNC(=O)C(=O)NCCCn2ccnc2)cc1`, over 47.5 µg/mL.
For the compound `N/C(=N\OC(=O)CCC1CCCC1)c1ccc(Cl)cc1`, the solubility (kinetic) worked out at 1.2 µg/mL (≈ 4.07 µM).
Turning to `COc1ccc(-c2cc(C(=O)N(C)Cc3nc4ccccc4c(=O)[nH]3)c3ccccc3n2)cc1OC`, the kinetic solubility worked out at 13.2 µg/mL (≈ 27.5 µM).
The compound `COc1ccc(N2CCN(C(=O)NC(=O)c3ccccc3)CC2)cc1` had a kinetic solubility of 38.7 µg/mL (≈ 114 µM).
To `CC(=O)c1ccc(NC(=O)NCc2ccc(F)cc2)cc1` belongs 7.8 µg/mL (≈ 27.2 µM); to `C=CCOC(=O)Cn1cnc2c(sc3nc(C)cc(C)c32)c1=O`, 3.2 µg/mL (≈ 9.72 µM).
To `Cc1ccc(C(=O)OCC(=O)Nc2cc(C(C)(C)C)no2)c(C)c1` belongs 3.1 µg/mL (≈ 9.38 µM).
To `CCc1nc2ccccc2c(C(=O)Nc2ccc(C)cc2)c1C` belongs under 0.3 µg/mL.
The compound `O=C(CC(=O)c1ccccc1)Nc1ccccn1` yielded a solubility (kinetic) of over 36 µg/mL.
`Cc1cc(C(=O)N2CCC(Cc3ccccc3)CC2)no1` registered a kinetic solubility of 36.7 µg/mL (≈ 129 µM).
The result for `COc1ccc(S(=O)(=O)N2CCN(C(=O)C3CCCCC3)CC2)cc1` reads 53.7 µg/mL (≈ 147 µM); that for `Cn1cccc1C(=O)OCc1ccc(C(C)(C)C)cc1`, 0.7 µg/mL (≈ 2.58 µM); that for `c1ccc(Nc2nc(NCCN3CCOCC3)nc(Nc3ccccc3)n2)cc1`, 36 µg/mL (≈ 92 µM).
To `CC(C)NC(=O)N1c2ccccc2Sc2ccccc21` belongs 33.4 µg/mL (≈ 117 µM).
Turning to `Cc1ccc(C)c(OCCn2ccnc2)c1`, the solubility (kinetic) came out at 24.7 µg/mL (≈ 114 µM).
The result for `O=C(COC(=O)c1ccccc1OCc1ccc(Cl)cc1)NCC1CCCO1` (stereo not given) reads over 60.6 µg/mL; that for `COc1cc(NC(=O)COC(=O)c2[nH]c(C)c(C(C)=O)c2C)cc(OC)c1`, 4 µg/mL (≈ 10.7 µM); that for `COCCNC(=S)N1CCC(Cc2ccccc2)CC1`, over 43.9 µg/mL.
Take `Cc1ccc(N2C(=O)C3C=NNC3C2=O)cc1` (stereo not given): the kinetic solubility is over 34.4 µg/mL.
The result for `Cn1cc(CCCC(=O)NCc2ccc(F)cc2)c2ccccc21` reads 22.7 µg/mL (≈ 70 µM); that for `Cc1ccccc1Nc1c(-c2ccccn2)nc2c(C)cccn12`, 1 µg/mL (≈ 3.18 µM).
The result for `C=CCNC(=O)COC(=O)COc1ccc(Cl)cc1` reads over 42.6 µg/mL; that for `CC(C)c1ccccc1OCCCCN1CCCCC1`, 37.1 µg/mL (≈ 135 µM).
To `CCC(=O)c1c[nH]c(C(=O)N2CCOCC2)c1` belongs 33.7 µg/mL (≈ 143 µM); to `Cc1cccc2c(CCN)c[nH]c12.Cl`, over 31.6 µg/mL.
As for `Cc1ccc2c(CN3CCC(C(N)=O)CC3)cc(=O)oc2c1C`, the solubility (kinetic) worked out at 46.2 µg/mL (≈ 147 µM).
As for `Cc1cc2ncn(S(=O)(=O)c3ccc(F)cc3)c2cc1C`, the kinetic solubility came out at 31.8 µg/mL (≈ 104 µM).
`COc1ccc(Nc2nnc(C)c(=O)[nH]2)c(OC)c1` showed a solubility (kinetic) of over 39.3 µg/mL.
As to `O=C(NC1CCN(Cc2cccc([N+](=O)[O-])c2)CC1)c1ccccc1`, the kinetic solubility came out at 32.4 µg/mL (≈ 95.5 µM).
`Cc1ccc(S(=O)(=O)NCCc2cccs2)cc1` showed a kinetic solubility of over 42.2 µg/mL.
Compound `CCn1c(Oc2ccccc2F)nc2c1c(=O)n(C)c(=O)n2C` gave a kinetic solubility of over 47.7 µg/mL.
The result for `Cc1ccc(C(=O)NC23CC4CC(CC(C4)C2)C3)c(Cl)c1` reads 0.7 µg/mL (≈ 2.3 µM).
`O=C(c1cc2cc(Br)ccc2[nH]1)N1CCc2ccccc21` displayed a kinetic solubility of under 0.4 µg/mL.
The result for `O=S(=O)(NC1=NCCCCC1)c1cc(F)ccc1F` reads over 43.2 µg/mL; that for `COC(=O)CCC(=O)NC(=S)Nc1ccccc1F`, 36.8 µg/mL (≈ 129 µM).
For `O=[N+]([O-])c1cc(C(F)(F)F)ccc1N1CCN(CCO)CC1`, the kinetic solubility was over 47.9 µg/mL.
To `COc1ccc(-c2c(C)nc(N)nc2-c2ccc(OC)cc2O)cc1` belongs 7.4 µg/mL (≈ 21.9 µM); to `N#C/C(=C\c1cccnc1)C(=O)Nc1ccc(Cl)cc1`, 5.7 µg/mL (≈ 20.1 µM).
